From patent US10577399B2, “Modified lantibiotics and methods of making and using the modified lantibiotics” (priority 2016, dated 2020)
≈ marks a conversion by molar mass, not a printed value. Where two headings read alike, the source gives them in different places. No end group written: not given here.

Assays:
[1] = tested on: M. luteus ATCC 10240; assay type: cell-based, Micrococcus luteus; conditions: for M. luteus ATCC 10240 MIC / M. luteus ATCC 10240 MLC: Table 11
Experimental: (§1) Minimum Inhibitory Concentrations (MICs) were determined according to previously published protocol^31. A stock solution of the antibiotics tested was first suspended in 50% acetonitrile (ACN) at a concentration 640 μg/mL. This stock was subsequently diluted 2-fold until a final concentration 0.156 μg/mL was reached. Subsequently, 10 μl of each dilution was placed into a well on a 96 well microtiter plate. M. luteus ATCC 10240, S. pneumoniae, and B. subtilis PY79 were grown overnight in THyex at 37° C. Cultures were diluted in the morning to 0.1 OD600 and allowed to grow to 0.6 OD600. This culture was diluted a 100-fold in fresh THyex media and then 400 μl of this culture was added to 10 mL of fresh THyex. The suspension contains approximately 10^5 colony forming units (CFUs). The bacterial suspension (190 μL) was added to each well containing 10 μL of antibiotic suspension or solvent blank. […] Following the 15 minute pretreatment, 190 μL was added to each well as described above. The MIC is described as the […] concentration of antibiotic that prevented visible growth after 24 hours.
FIG. 11 illustrates the bioactivity of various core peptide mutants of mutacin 1130. The activity of the core mutant peptides is expressed as a ratio of the area of the zone of inhibition of each mutant strain to the area of the zone of inhibition of the wild-type strain against indicator strain of Micrococcus luteus. […] The deferred antagonism assay is an overlay assay of the indicator strain onto plates containing heat killed colonies of the mutacin producer strain after growing overnight. Core peptide mutants having inhibitory activity were isolated and the purified products were further evaluated by a standard minimum inhibitory concentration (MIC) assay.

[2] = tested on: M. luteus ATCC 10240; assay: Deferred antagonism (overlay) assay, zone of inhibition; assay type: cell-based, Micrococcus luteus; conditions: relative to wild-type strain
Experimental: The deferred antagonism assay was performed as previously described^39. S. mutans strains were grown overnight in THyex broth at 37° C. The cultures were diluted to 0.1 OD OD600 and grown to mid-logarithmic phase before diluting to 0.05 OD600. Then, 2 μl of the cultures were spotted on THyex plates in duplicates of triplicates. The wild-type S. mutans JH1140 and S. mutans ΔmutA were used as positive and negative controls for activity, respectively. The plates were incubated for 18 hours in a candle jar at 37° C. After incubation, the strains were heat killed at 65° C. for 90 minutes. Fresh M. luteus grown overnight at 37° C. on THyex plates were used to inoculate pre-warmed THyex broth. The culture was grown to 0.6 to 0.8 OD before diluting to 0.2 OD600. The culture was further diluted 25-fold in melted (42° C.) THyex top agar. Approximately 5 mL of the top agar solution was spread on the heat killed bioassay plates and allowed to cool for 10 minutes. The plates were then placed in the incubator (at 37° C.) for 18 hours.
Streptococcus mutans ATCC 55676 (wild-type) and the mutants that were at an OD600 of 0.2 were spotted in triplicates on a pre-warmed THyex agar plate (150×15 mm) and allowed to dry. This assay was performed in this manner to ensure that each sample had the same colony size for comparing zones of inhibition. The plate was incubated for 24 hours then placed in an oven at 50° C. for thirty minutes to kill the bacteria before the indicator strain was overlaid. Heat killing the bacteria prevents any further antimicrobial compound production so that results seen are from single day incubation. Zone diameter was measured in millimeters across the plate and compared to wild-type (i.e. zone I for ATCC compared to zone I of Trp4Ala, etc.).

[3] = Pharmacokinetics after intravenous dose in mice; assay type: in vivo; conditions: 2.5 mg/kg i. v., BALB/c mice; at 70 minutes
Experimental: The compounds were dissolved in normal saline for all pharmacokinetic studies. An extraction protocol was developed in vitro by the addition of each compound to commercially bought BALB/c mouse serum. The compounds were extracted by the addition of 70% ACN containing 0.1% TFA/30% methanol containing 0.4% formic acid. The extract was then analyzed by LC-MS using a TSQ Vantage Triple Quad mass spectrometer. A standard curve was generated for each compound using known dilutions of the compounds in serum, which was then extracted. The R-squared values for each standard exceeded 0.98. BALB/c mice were used to evaluate pharmacokinetics of the compounds in vivo. A 2.5 mg/kg i. v. dose was evaluated for native mutacin, R13A, S5G, and double mutant S5A:T14G (FIG. 12A). A polynomial second order was used to estimate the peak plasma concentration and half-life of the R13A. […] Possibly, the Dhb14 residue may protect the peptide from trypsin-like proteases in the blood. […] Thus, taking the dynamics of cell death into account and the pharmacokinetics of the R13A, the R13A in serum is above the inhibitory concentration for S. pneumonia long enough to kill the pathogen.

[4] = tested on: C. accolens ATCC 49725; assay: MIC/MLC assay against C. accolens ATCC 49725; assay type: cell-based; conditions: THyex broth with 1% Tween 80
[5] = tested on: C. accolens KPL 1818; assay: MIC/MLC assay against C. accolens KPL 1818; assay type: cell-based; conditions: THyex broth with 1% Tween 80
[6] = tested on: S. aureus ATCC 25923; assay: MIC/MLC assay against S. aureus; assay type: cell-based, Staphylococcus aureus; conditions: Table 11
[7] = tested on: S. pneumoniae ATCC 27336; assay type: cell-based, Streptococcus pneumoniae; conditions: Table 11
Experimental: as §1, with “hours. […]” for “hours.”

| Molecule | MIC ([1]; Table 10, indicator strain Micrococcus luteus) [µg/mL] | activity relative to wild-type mutacin 1140 (M. luteus) ([1]; purified variants) | zone of inhibition / inhibitory activity in deferred antagonism assay [2] | MIC ([1]; ATCC 10240) [µg/mL] | plasma level / clearance from blood [3] | C. accolens ATCC 49725 MIC [4] [micrograms per milliliter] | C. accolens ATCC 49725 MLC [4] [micrograms per milliliter] | M. luteus ATCC 10240 MIC [1] [micrograms per milliliter] | M. luteus ATCC 10240 MLC [1] [micrograms per milliliter] | C. accolens KPL 1818 MIC [5] [micrograms per milliliter] | C. accolens KPL 1818 MLC [5] [micrograms per milliliter] | S. aureus ATCC 25923 MIC [6] [micrograms per milliliter] | S. aureus ATCC 25923 MLC [6] [micrograms per milliliter] | S. pneumonia ATCC 27336 MIC [7] [micrograms per milliliter] | S. pneumonia ATCC 27336 MLC [7] [micrograms per milliliter] |
| --- | --- | --- | --- | --- | --- | --- | --- | --- | --- | --- | --- | --- | --- | --- | --- |
| C=C1NC(=O)[C@H](Cc2c[nH]c3ccccc23)NC(=O)[C@H](NC(=O)[C@H](CCCCN)NC(=O)[C@@H](N)Cc2ccccc2)CSC[C@@H](C(=O)N[C@H]2C(=O)N3CCC[C@H]3C(=O)NCC(=O)N[C@H](C(=O)N[C@@H](C)C(=O)N[C@@H](CCCNC(=N)N)C(=O)N/C(=C\C)C(=O)NCC(=O)N[C@@H]3CSC[C@@H]4NC(=O)[C@H](Cc5ccc(O)cc5)NC(=O)[C@@H](CS/C=C\NC4=O)NC(=O)[C@H](CC(N)=O)NC(=O)[C@H](Cc4ccccc4)NC3=O)CS[C@H]2C)NC(=O)[C@H](C)NC1=O [Mutant Leu6Ala] | 0.0625 (≈ 0.0281 µM) | two-fold more active | larger zone of inhibition |  |  |  |  |  |  |  |  |  |  |  |  |
| C=C1NC(=O)[C@H](Cc2c[nH]c3ccccc23)NC(=O)[C@H](NC(=O)[C@H](C)NC(=O)[C@@H](N)Cc2ccccc2)CSC[C@@H](C(=O)N[C@H]2C(=O)N3CCC[C@H]3C(=O)NCC(=O)N[C@H](C(=O)N[C@@H](C)C(=O)N[C@@H](CCCNC(=N)N)C(=O)N/C(=C\C)C(=O)NCC(=O)N[C@@H]3CSC[C@@H]4NC(=O)[C@H](Cc5ccc(O)cc5)NC(=O)[C@@H](CS/C=C\NC4=O)NC(=O)[C@H](CC(N)=O)NC(=O)[C@H](Cc4ccccc4)NC3=O)CS[C@H]2C)NC(=O)[C@H](CC(C)C)NC1=O [Mutant Lys2Ala] |  |  | larger zone of inhibition | 0.125 (≈ 0.0566 µM) |  |  |  |  |  |  |  |  |  |  |  |
| CC(C)C[C@@H]1NC(=O)[C@H](C)NC(=O)[C@H](Cc2c[nH]c3ccccc23)NC(=O)C(NC(=O)[C@H](CCCCN)NC(=O)[C@@H](N)Cc2ccccc2)CSC[C@@H](C(=O)NC2C(=O)N3CCC[C@H]3C(=O)NCC(=O)N[C@H](C(=O)N[C@@H](C)C(=O)N[C@@H](CCCNC(=N)N)C(=O)NCC(=O)NCC(=O)NC3CSC[C@@H]4NC(=O)[C@H](Cc5ccc(O)cc5)NC(=O)[C@@H](CS/C=C\NC4=O)NC(=O)[C@H](CC(N)=O)NC(=O)[C@H](Cc4ccccc4)NC3=O)CSC2C)NC1=O (some centres unmarked) [S5A:T14G] |  |  |  |  | performed the worst |  |  |  |  |  |  |  |  |  |  |
| C-terminal fluorescein conjugate of mutacin 1140: mu1140-COOH coupled to 5-(aminoacetamido)fluorescein at the C-terminus (FKSWSLCTPGCARTGSFNSYCC-{5‑(aminoacetamido)fluorescein}; ends and bridges not checked; UniProt O68586 42-63, looked up) |  |  | has the inhibitory activity |  |  |  |  |  |  |  |  |  |  |  |  |
| G15A*: core peptide mutant of mutacin 1140, Glycine 15 replaced by Alanine (FKSWSLCTPGCARTASFNSYCC; ends and bridges not checked; cysteine pairing not given here; UniProt O68586 42-63, looked up, variant G15A) |  |  | no change in activity |  |  | 1 | 1 | 0.125 | 0.125 | 1 | 2 | 16 | 16 | 0.5 | 0.5 |
| S5G:T14G: core peptide mutant of mutacin 1140, positions 5, 14 replaced by Glycine and Glycine (FKSWGLCTPGCARGGSFNSYCC; ends and bridges not checked; cysteine pairing not given here; UniProt O68586 42-63, looked up, variant S5G T14G) |  |  |  |  |  | 1 | 1 | 0.5 | 0.5 | 0.5 | 1 | 8 | 16 | 2 | 2 |
| S5T: core peptide mutant of mutacin 1140, Serine 5 replaced by Threonine (FKSWTLCTPGCARTGSFNSYCC; UniProt O68586 42-63, looked up, variant S5T) [Mutant S5T] |  |  |  |  |  | >4 | >4 | 4 | 4 | >4 | >4 | >32 | >32 | 2 | 2 |
